# According to patent publication US20220047566A1, “LONG ACTING IN-SITU FORMING/GELLING COMPOSITIONS” (Humanwell Pharmaceutical US, priority 2020, published 2022):
# Where a name gives a salt, the structure may show the parent alone.
# Tested on: skin incision
# Assay: Mini-pig skin incision model, Von Frey test
# Type: in vivo
# Conditions: subcutaneous into both sides of incision
# Description: Mini-pig skin incision model was used to test the anesthetic efficacy of some formulations. Mini pig was used in this model due to the similarities of their skin to humans. Mini pigs (9-12 kg) were randomly assigned for test groups. Under isoflurane anesthesia and sterile surgical conditions, a 6 cm long incision was made through skin in the rear left flank. The test drugs were administered subcutaneously into both sides of incision. The wound was then closed by continuous suture. After surgery the mini pig received antibiotic amoxicillin injection for 3 days as wound care. The efficacy of test drugs was evaluated by Von Frey test. At desired time point, an electrical automatic Von Frey was used to apply force about 0.5 cm to the incision. If operator observed the contraction of skin/muscle, or the applied force was over 100 g, the operator stopped the test and record the read of applied force. The response baseline of all mini pigs was tested and the pain threshold was set to the middle of baseline and 100 g. If the response force was higher than pain threshold value then there was anesthesia efficacy, vice versa.
compound,measurement,value
CCCCN1CCCC[C@H]1C(=O)Nc1c(C)cccc1C [levobupivacaine HCl],duration of anesthesia efficacy,about 4 hours
